Laboratory results from US20220211692A1, “Modulators of the Cystic Fibrosis Transmembrane Conductance Regulator Protein and Methods of Use” (AbbVie Global Enterprises Ltd., priority 2021, published 2022).
Read-outs that look alike come from different tables or passages of the source.

Assays:
F508delCFTR = biological target: T1, F508delCFTR (Homo sapiens, UniProt P13569, DEL508-508); assay: Cell Surface Expression-Horse Radish Peroxidase (CSE-HRP) assay in CFBE41o-F508delCFTR-HRP cells; type: cell-based; details: for EC50: CFBE41o-F508delCFTR-HRP cells, 18-24 hours at 33° C.; for Emax / Maximum % activity (with co-corrector): normalized to on-plate positive control; for Emax: read-out: Maximum % activity (without co-corrector)
T1 construct: expressed in transfected cells; host or cells: CFBE41o- human lung derived epithelial cell line, doxycycline-induced expression
T1 sequence (P13569 with tags, fused parts or gaps DEL508-508): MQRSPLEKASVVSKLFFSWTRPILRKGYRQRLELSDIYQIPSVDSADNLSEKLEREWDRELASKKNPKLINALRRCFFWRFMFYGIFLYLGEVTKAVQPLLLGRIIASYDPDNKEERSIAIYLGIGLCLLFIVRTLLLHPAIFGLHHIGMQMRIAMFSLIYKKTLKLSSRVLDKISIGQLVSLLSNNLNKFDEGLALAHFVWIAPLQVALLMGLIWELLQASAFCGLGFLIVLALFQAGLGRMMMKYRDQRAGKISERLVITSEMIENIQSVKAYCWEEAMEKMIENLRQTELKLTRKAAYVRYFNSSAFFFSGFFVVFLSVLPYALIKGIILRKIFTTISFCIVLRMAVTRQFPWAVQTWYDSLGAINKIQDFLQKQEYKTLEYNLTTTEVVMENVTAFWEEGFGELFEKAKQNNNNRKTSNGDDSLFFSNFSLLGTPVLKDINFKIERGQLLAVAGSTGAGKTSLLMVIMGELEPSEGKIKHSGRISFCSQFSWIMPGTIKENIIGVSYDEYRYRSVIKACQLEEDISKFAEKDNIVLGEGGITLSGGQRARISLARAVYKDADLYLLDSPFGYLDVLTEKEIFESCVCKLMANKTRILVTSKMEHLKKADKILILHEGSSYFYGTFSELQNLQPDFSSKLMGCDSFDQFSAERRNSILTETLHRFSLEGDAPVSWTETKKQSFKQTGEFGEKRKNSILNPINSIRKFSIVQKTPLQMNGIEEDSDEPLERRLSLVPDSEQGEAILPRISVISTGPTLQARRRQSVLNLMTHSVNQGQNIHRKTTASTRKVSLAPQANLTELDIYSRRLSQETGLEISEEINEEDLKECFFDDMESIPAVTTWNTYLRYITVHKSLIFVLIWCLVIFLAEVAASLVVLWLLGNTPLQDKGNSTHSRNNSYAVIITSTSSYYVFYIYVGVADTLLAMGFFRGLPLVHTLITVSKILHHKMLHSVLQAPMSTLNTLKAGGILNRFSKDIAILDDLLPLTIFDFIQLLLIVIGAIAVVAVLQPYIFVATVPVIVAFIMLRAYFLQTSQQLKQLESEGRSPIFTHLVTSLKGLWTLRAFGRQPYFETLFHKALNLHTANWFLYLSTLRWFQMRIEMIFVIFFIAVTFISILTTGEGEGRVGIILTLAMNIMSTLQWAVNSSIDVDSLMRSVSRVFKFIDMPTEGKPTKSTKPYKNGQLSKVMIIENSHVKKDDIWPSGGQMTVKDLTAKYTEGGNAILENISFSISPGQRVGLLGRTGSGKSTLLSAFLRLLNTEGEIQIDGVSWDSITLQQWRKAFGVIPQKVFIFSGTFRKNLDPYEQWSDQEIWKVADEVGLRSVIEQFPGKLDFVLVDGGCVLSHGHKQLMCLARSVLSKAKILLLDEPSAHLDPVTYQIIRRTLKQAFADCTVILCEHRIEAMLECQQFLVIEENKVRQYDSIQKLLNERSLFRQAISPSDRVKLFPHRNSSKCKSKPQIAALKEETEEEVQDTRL
Summary of the method: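 Doxycycline (0.5 μg/mL) induced HRP-tagged F508delCFTR in CFBE41o- cells for 68-72 h at 37 °C; compounds ± co-corrector (2 μM) then ran 18-24 h at 33 °C, 8-point 3-fold series from 20 or 30 μM. After DPBS washes, surface HRP was read by luminol luminescence. Activity was normalised to the on-plate positive control versus DMSO, and EC50 was fitted by variable-slope sigmoid from triplicate plates.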

F508del/F508del CFTR = biological target: T2, F508del/F508del CFTR (Homo sapiens, UniProt P13569, DEL508-508); assay: Trans-Epithelial Current Clamp (TECC) assay using primary human bronchial epithelial cells; type: cell-based; details: for Emax (% Dual): maximum percent activity relative to positive control (co-corrector 0.15 μM + potentiator 0.45 μM = 100%); for EC50: primary hBE cells F508del/F508del, test corrector with co-corrector and potentiator, 18-24 hours, equivalent CFTR current
T2 construct: cells isolated from CF patients with the homozygous mutation; endogenous in cells; host or cells: primary human bronchial epithelial (hBE) cells from CF patients homozygous for F508del
T2 sequence (P13569 with tags, fused parts or gaps DEL508-508): as above
Summary of the method: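 F508del/F508del primary hBE cells grown 35 days at air-liquid interface were treated basolaterally with C2 correctors plus fixed co-corrector and potentiator for 18-24 h at 37° C. TECC-24 current clamp at 36.5° C in HEPES-buffered F-12 Coon's, pH 7.4; equivalent current IEQ=VT/RT, plus AUC between forskolin peak and bumetanide.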

[1] = with co-corrector 2 μM, read-out: EC50 (with co-corrector)
[2] = without co-corrector, read-out: EC50 (without co-corrector)

| SMILES | EC50 (F508delCFTR; [1]) [nM] | EC50 (F508delCFTR; [2]) [nM] | Emax (F508delCFTR; without co-corrector) [%] | Emax (% Dual) (F508del/F508del CFTR) | EC50 (F508del/F508del CFTR) [nM] | Maximum % activity (with co-corrector) (F508delCFTR; with co-corrector 2 μM) [%] |
| --- | --- | --- | --- | --- | --- | --- |
| CCc1ccc(Oc2cccnc2OC)c([C@]2(C(=O)NS(=O)(=O)c3cccc4nc(C)ccc34)CCCO2)c1 [Example 24, (2S)-2-{5-ethyl-2-[(2-methoxypyridin-3-yl)oxy]phenyl}-N-(2-methylquinoline-5-sulfonyl)oxolane-2-carboxamide] | 2520 | 3630 | 141 | 167 | > 800 | 449 |
| CCc1ccc(Oc2cccnc2OC)c([C@@]2(C(=O)NS(=O)(=O)c3cccc4nc(C)ccc34)CCCO2)c1 [Example 25, (2R)-2-{5-ethyl-2-[(2-methoxypyridin-3-yl)oxy]phenyl}-N-(2-methylquinoline-5-sulfonyl)oxolane-2-carboxamide] | 580 | 1450 | 476 | 279 | 30.6 | 954 |
| COc1ccc(C)cc1[C@@]1(C(=O)NS(=O)(=O)c2cccc3nc(C)ccc23)C[C@H](C)CO1 [Example 20, (2R,4S)-2-(2-methoxy-5-methylphenyl)-4-methyl-N-(2-methylquinoline-5-sulfonyl)oxolane-2-carboxamide] | 680 | 1230 | 366 | 201 | 35.1 | 862 |
| CCc1ccc(Oc2cccnc2OC(F)F)c([C@]2(C(=O)NS(=O)(=O)c3cccc4nc(C)ccc34)CCCO2)c1 [Example 26, (2S)-2-(2-{[2-(difluoromethoxy)pyridin-3-yl]oxy}-5-ethylphenyl)-N-(2-methylquinoline-5-sulfonyl)oxolane-2-carboxamide] | 3270 | 3970 | 282 | 130 | 171 | 828 |

Now from value to compound:

| EC50 (F508delCFTR; [1]) [nM] | EC50 (F508delCFTR; [2]) [nM] | Emax (F508delCFTR; without co-corrector) [%] | Emax (% Dual) (F508del/F508del CFTR) | EC50 (F508del/F508del CFTR) [nM] | Maximum % activity (with co-corrector) (F508delCFTR; with co-corrector 2 μM) [%] | SMILES |
| --- | --- | --- | --- | --- | --- | --- |
| 160 | 440 | 705 | 208 | 2.6 | – | COc1ccccc1[C@@H]1CO[C@@](C(=O)NS(=O)(=O)c2cccc3nc(N)ccc23)(c2cc(C)ccc2OC)C1 [Example 40, (2R,4R)—N-(2-aminoquinoline-5-sulfonyl)-2-(2-methoxy-5-methylphenyl)-4-(2-methoxyphenyl)oxolane-2-carboxamide] |
| 1210 | 1860 | 213 | 230 | 164 | 587 | COc1ccc(C)cc1[C@@]1(C(=O)NS(=O)(=O)c2cccc3nc(C)ccc23)C[C@@H](OC)CO1 [Example 29, (2R,4R)-4-methoxy-2-(2-methoxy-5-methylphenyl)-N-(2-methylquinoline-5-sulfonyl)oxolane-2-carboxamide] |
| 330 | 530 | 509 | 283 | 11.7 | – | COc1ccc(C)cc1C1(C(=O)NS(=O)(=O)c2cccc3nc(C)ccc23)CCC(c2ccccc2)O1 (stereo in doubt) [Example 7, (2S,5S)-2-(2-methoxy-5-methylphenyl)-N-(2-methylquinoline-5-sulfonyl)-5-phenyloxolane-2-carboxamide] |
| 1190 | 1110 | 542 | 158 | 17.1 | – | COc1ccc(C)cc1[C@]1(C(=O)NS(=O)(=O)c2cccc3nc(C)ccc23)CC[C@H](c2ccccc2)O1 [Example 11, (2S,5R)-2-(2-methoxy-5-methylphenyl)-N-(2-methylquinoline-5-sulfonyl)-5-phenyloxolane-2-carboxamide] |
| 680 | 700 | 735 | 315 | 68 | – | COc1ccc(C)cc1[C@@]1(C(=O)NS(=O)(=O)c2cccc3nc(C)ccc23)CC[C@H](c2ccccc2)O1 [Example 12, (2R,5R)-2-(2-methoxy-5-methylphenyl)-N-(2-methylquinoline-5-sulfonyl)-5-phenyloxolane-2-carboxamide] |
| 330 | 980 | 679 | 244 | 14.1 | – | COc1ccccc1[C@H]1CO[C@@](C(=O)NS(=O)(=O)c2cccc3nc(C)ccc23)(c2cc(C)ccc2OC)C1 [Example 38, (2R,4S)-2-(2-methoxy-5-methylphenyl)-4-(2-methoxyphenyl)-N-(2-methylquinoline-5-sulfonyl)oxolane-2-carboxamide] |
